Test results as given in ChEMBL document CHEMBL1201862, “PubChem BioAssay data set” (2004).
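Each compound was tested at five concentrations against cells in 96-well plates for 48 hours. Abbreviation: GI50, concentration required for 50% inhibition of growth.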 Activity calls are given as the source filed them. No stated cut-off is given here; in the data, active = GI50 up to about 1.1 µM and inactive = higher.

Experiments:
Assay in all cases: NCI anticancer screen, dose series, 48 h
OVCAR-3 = system: OVCAR-3
SK-MEL-2 = system: SK-MEL-2
BT-549 = system: BT-549
786-0 = system: 786-0
SK-OV-3 = system: SK-OV-3
LOX IMVI = system: LOX IMVI
PC-3 = system: PC-3
A498 = system: A498
UACC-62 = system: UACC-62
MCF7 = system: MCF7
OVCAR-4 = system: OVCAR-4
SF-539 = system: SF-539
NCI-H522 = system: NCI-H522
MDA-N = system: MDA-N
HL-60 = system: HL-60
HCT-116 = system: HCT-116
T47D = system: T47D
Hs-578T = system: Hs-578T
TK-10 = system: TK-10
COLO 205 = system: COLO 205
CCRF-CEM = system: CCRF-CEM
UO-31 = system: UO-31
MDA-MB-231 = system: MDA-MB-231
MDA-MB-435 = system: MDA-MB-435
SK-MEL-28 = system: SK-MEL-28
Malme-3M = system: Malme-3M
ACHN = system: ACHN
SR = system: SR
SNB-19 = system: SNB-19
HT-29 = system: HT-29
SW-620 = system: SW-620
NCI-H226 = system: NCI-H226
A549 = system: A549
SF-268 = system: SF-268
MOLT-4 = system: MOLT-4
SF-295 = system: SF-295
HOP-92 = system: HOP-92
HOP-62 = system: HOP-62
SK-MEL-5 = system: SK-MEL-5
SNB-75 = system: SNB-75
HCT-15 = system: HCT-15
EKVX = system: EKVX
UACC-257 = system: UACC-257
IGROV-1 = system: IGROV-1
OVCAR-5 = system: OVCAR-5
RXF 393 = system: RXF 393
NCI-H460 = system: NCI-H460
SN12C = system: SN12C
NCI/ADR-RES = system: NCI/ADR-RES
DU-145 = system: DU-145
NCI-H23 = system: NCI-H23
HCC 2998 = system: HCC 2998
K562 = system: K562
OVCAR-8 = system: OVCAR-8
M14 = system: M14
RPMI-8226 = system: RPMI-8226
U-251 = system: U-251
CAKI-1 = system: CAKI-1
KM12 = system: KM12

With `CN(C)c1ccc(/C=C/C=C(/C#N)c2ccccc2)cc1` the GI50 (OVCAR-3) was 9.91 µM (inactive), the GI50 (SK-MEL-2) was 13.7 µM (inactive) and the GI50 (BT-549) was > 100 µM (inactive). The GI50 (786-0) was 28.1 µM (inactive), the GI50 (SK-OV-3) was 34.8 µM (inactive) and the GI50 (LOX IMVI) was 11.2 µM (inactive). For the same compound, the GI50 (PC-3) was 39.3 µM (inactive), the GI50 (A498) was 24.3 µM (inactive) and the GI50 (UACC-62) was 19.2 µM (inactive). The GI50 (MCF7) was 17.7 µM (inactive), the GI50 (OVCAR-4) was > 38.6 µM (inactive) and the GI50 (SF-539) was 16.4 µM (inactive). The GI50 (NCI-H522) was 10.5 µM (inactive), the GI50 (MDA-N) was 1.94 µM (inactive) and the GI50 (HL-60) was 2.74 µM (inactive). For the same compound, the GI50 (HCT-116) was 16.4 µM (inactive), the GI50 (T47D) was 9.57 µM (inactive) and the GI50 (Hs-578T) was 21.9 µM (inactive). The GI50 (TK-10) was 42.8 µM (inactive), the GI50 (COLO 205) was 20.4 µM (inactive) and the GI50 (CCRF-CEM) was 22.3 µM (inactive). The GI50 (UO-31) was > 46 µM (inactive), the GI50 (MDA-MB-231) was 37.8 µM (inactive) and the GI50 (MDA-MB-435) was 2 µM (inactive). For the same compound, the GI50 (SK-MEL-28) was > 82.4 µM (inactive), the GI50 (Malme-3M) was 14 µM (inactive) and the GI50 (ACHN) was 34.4 µM (inactive). For the same compound, the GI50 (SR) was 3.64 µM (inactive), the GI50 (SNB-19) was 30.1 µM (inactive) and the GI50 (HT-29) was 7.57 µM (inactive). The GI50 (SW-620) was 6.34 µM (inactive), the GI50 (NCI-H226) was 53.1 µM (inactive) and the GI50 (A549) was 32.1 µM (inactive). For the same compound, the GI50 (SF-268) was 37.3 µM (inactive), the GI50 (MOLT-4) was 11.8 µM (inactive) and the GI50 (SF-295) was 26.8 µM (inactive). For the same compound, the GI50 (HOP-92) was 78.7 µM (inactive), the GI50 (HOP-62) was 19 µM (inactive) and the GI50 (SK-MEL-5) was 14.5 µM (inactive). For the same compound, the GI50 (SNB-75) was 28.4 µM (inactive), the GI50 (HCT-15) was 6.87 µM and the GI50 (EKVX) was 55.2 µM (inactive). The GI50 (UACC-257) was 40.7 µM (inactive), the GI50 (IGROV-1) was 21.4 µM (inactive) and the GI50 (OVCAR-5) was > 62.7 µM (inactive). For the same compound, the GI50 (RXF 393) was 36.8 µM (inactive), the GI50 (NCI-H460) was 25.5 µM (inactive) and the GI50 (SN12C) was 45.4 µM (inactive). For the same compound, the GI50 (NCI/ADR-RES) was 6.92 µM (inactive), the GI50 (DU-145) was 55.7 µM (inactive) and the GI50 (NCI-H23) was 36.9 µM (inactive). The GI50 (HCC 2998) was 30.3 µM (inactive), the GI50 (K562) was 4.22 µM (inactive) and the GI50 (OVCAR-8) was 33 µM (inactive). For the same compound, the GI50 (M14) was 15.8 µM (inactive), the GI50 (RPMI-8226) was 21.9 µM (inactive) and the GI50 (U-251) was 17.1 µM (inactive). The GI50 (CAKI-1) was 33.5 µM (inactive) and the GI50 (KM12) was 4.8 µM (inactive).
For `Cc1ccc2nc(/C=N/c3ccc(Cl)cc3)cc(C)c2c1`, the GI50 (OVCAR-3) was 9.84 µM (inactive), the GI50 (SK-MEL-2) was 25.8 µM (inactive) and the GI50 (BT-549) was 13.9 µM (inactive). The GI50 (786-0) was 10.6 µM (inactive), the GI50 (SK-OV-3) was 16.8 µM (inactive) and the GI50 (LOX IMVI) was 0.329 µM (active). For the same compound, the GI50 (PC-3) was 1.9 µM (inactive), the GI50 (A498) was > 80.4 µM (inactive) and the GI50 (UACC-62) was 0.133 µM (active). The GI50 (MCF7) was 4.7 µM (inactive), the GI50 (OVCAR-4) was 20.3 µM (inactive) and the GI50 (SF-539) was 2.12 µM (inactive). The GI50 (NCI-H522) was 2.65 µM (inactive), the GI50 (MDA-N) was 1.3 µM (inactive) and the GI50 (HL-60) was 1.14 µM (inactive). The GI50 (HCT-116) was 1.08 µM (active), the GI50 (T47D) was 2.54 µM (inactive) and the GI50 (Hs-578T) was 15.8 µM (inactive). The GI50 (TK-10) was 2.9 µM (inactive), the GI50 (COLO 205) was 1.16 µM (inactive) and the GI50 (CCRF-CEM) was 1.06 µM (active). For the same compound, the GI50 (UO-31) was 0.381 µM (active), the GI50 (MDA-MB-231) was 4.94 µM (inactive) and the GI50 (MDA-MB-435) was 1.04 µM (active). The GI50 (SK-MEL-28) was 13.4 µM (inactive), the GI50 (Malme-3M) was 2.44 µM (inactive) and the GI50 (ACHN) was 0.128 µM (active). The GI50 (SR) was 1.88 µM (inactive), the GI50 (SNB-19) was 27.6 µM (inactive) and the GI50 (HT-29) was 2.64 µM (inactive). For the same compound, the GI50 (SW-620) was 2.07 µM (inactive), the GI50 (NCI-H226) was 18.4 µM (inactive) and the GI50 (A549) was 1.24 µM (inactive). For the same compound, the GI50 (SF-268) was 14.7 µM (inactive), the GI50 (MOLT-4) was 1.12 µM (inactive) and the GI50 (SF-295) was 0.798 µM (active). For the same compound, the GI50 (HOP-92) was 18.6 µM (inactive), the GI50 (HOP-62) was 2.26 µM (inactive) and the GI50 (SK-MEL-5) was 2.29 µM (inactive). For the same compound, the GI50 (SNB-75) was 17 µM (inactive), the GI50 (HCT-15) was 0.027 µM and the GI50 (EKVX) was 14.4 µM (inactive). The GI50 (UACC-257) was 4.38 µM (inactive), the GI50 (IGROV-1) was 0.989 µM (active) and the GI50 (OVCAR-5) was 3.67 µM (inactive). For the same compound, the GI50 (RXF 393) was 24.7 µM (inactive), the GI50 (NCI-H460) was 0.729 µM (active) and the GI50 (SN12C) was 5.21 µM (inactive). For the same compound, the GI50 (NCI/ADR-RES) was 3.44 µM (inactive), the GI50 (DU-145) was 0.659 µM (active) and the GI50 (NCI-H23) was 9.91 µM (inactive). The GI50 (HCC 2998) was 0.574 µM (active), the GI50 (K562) was 0.147 µM (active) and the GI50 (OVCAR-8) was 10.3 µM (inactive). The GI50 (M14) was 0.212 µM (active), the GI50 (RPMI-8226) was 1.24 µM (inactive) and the GI50 (U-251) was 8.47 µM (inactive). For the same compound, the GI50 (CAKI-1) was 1.38 µM (inactive) and the GI50 (KM12) was 0.269 µM (active).
`CN(CCCCN1CCCC1)CCCCN(C)C(=O)Cc1ccc(Cl)c(Cl)c1` was tested, and the GI50 (OVCAR-3) was 18.2 µM (inactive), the GI50 (SK-MEL-2) was 6.07 µM (inactive) and the GI50 (BT-549) was 18.5 µM (inactive). For the same compound, the GI50 (786-0) was 12.3 µM (inactive), the GI50 (SK-OV-3) was 23.6 µM (inactive) and the GI50 (LOX IMVI) was 10.6 µM (inactive). The GI50 (PC-3) was 16.8 µM (inactive), the GI50 (A498) was 17.1 µM (inactive) and the GI50 (UACC-62) was 3.66 µM (inactive). The GI50 (MCF7) was 14 µM (inactive), the GI50 (OVCAR-4) was 17.6 µM (inactive) and the GI50 (SF-539) was 9.29 µM (inactive). The GI50 (NCI-H522) was 11.5 µM (inactive), the GI50 (MDA-N) was 3.56 µM (inactive) and the GI50 (HL-60) was 17.5 µM (inactive). For the same compound, the GI50 (HCT-116) was 14.3 µM (inactive), the GI50 (T47D) was 20.2 µM (inactive) and the GI50 (Hs-578T) was 19.5 µM (inactive). For the same compound, the GI50 (TK-10) was 18.2 µM (inactive), the GI50 (COLO 205) was 7.8 µM (inactive) and the GI50 (CCRF-CEM) was 6.22 µM (inactive). The GI50 (UO-31) was 1.71 µM (inactive), the GI50 (MDA-MB-231) was 10.1 µM (inactive) and the GI50 (MDA-MB-435) was 2.26 µM (inactive). The GI50 (SK-MEL-28) was 2 µM (inactive), the GI50 (Malme-3M) was 17.9 µM (inactive) and the GI50 (ACHN) was 20.7 µM (inactive). The GI50 (SR) was 2.59 µM (inactive), the GI50 (SNB-19) was 19.3 µM (inactive) and the GI50 (HT-29) was 3.85 µM (inactive). The GI50 (SW-620) was 18.8 µM (inactive), the GI50 (NCI-H226) was 23.7 µM (inactive) and the GI50 (A549) was 14.4 µM (inactive). For the same compound, the GI50 (SF-268) was 17.2 µM (inactive), the GI50 (MOLT-4) was 4.54 µM (inactive) and the GI50 (SF-295) was 19.5 µM (inactive). For the same compound, the GI50 (HOP-92) was 2.88 µM (inactive), the GI50 (HOP-62) was 16.3 µM (inactive) and the GI50 (SK-MEL-5) was 6.43 µM (inactive). The GI50 (SNB-75) was 15 µM (inactive), the GI50 (HCT-15) was 21.1 µM and the GI50 (EKVX) was 20.5 µM (inactive). The GI50 (UACC-257) was 2.52 µM (inactive), the GI50 (IGROV-1) was 18.2 µM (inactive) and the GI50 (OVCAR-5) was 21.9 µM (inactive). The GI50 (RXF 393) was 11.7 µM (inactive), the GI50 (NCI-H460) was 14.8 µM (inactive) and the GI50 (SN12C) was 19.1 µM (inactive). The GI50 (NCI/ADR-RES) was > 100 µM (inactive), the GI50 (DU-145) was 25.2 µM (inactive) and the GI50 (NCI-H23) was 17.9 µM (inactive). For the same compound, the GI50 (HCC 2998) was 5.09 µM (inactive), the GI50 (K562) was 2.91 µM (inactive) and the GI50 (OVCAR-8) was 21.3 µM (inactive). The GI50 (M14) was 17.2 µM (inactive), the GI50 (RPMI-8226) was 5.33 µM (inactive) and the GI50 (U-251) was 13.6 µM (inactive). The GI50 (CAKI-1) was 19.5 µM (inactive) and the GI50 (KM12) was 13.1 µM (inactive).
